In the supplement of paper PMC13380429:

Assays:
Conditions in all cases: 72 h
Vero E6 [1] = assay: cell viability relative to DMSO; higher = less toxic
HepG2 [2] = assay: as above
U2OS [3] = assay: as above
Caco-2 [4] = assay: as above
Calu-3 [5] = assay: as above
Vero E6 [6] = assay: relative viability EC50 (midpoint between 100% and the lowest measured viability); higher = less toxic
HepG2 [7] = assay: as above
U2OS [8] = assay: as above
Caco-2 [9] = assay: as above
Calu-3 [10] = assay: as above
Vero E6 [11] = assay: drug sensitivity score (DSS) for viability; higher = more toxic; extreme values may be limits of the assay
HepG2 [12] = assay: as above
U2OS [13] = assay: as above
Caco-2 [14] = assay: as above
Calu-3 [15] = assay: as above

Structure (SMILES) | cell viability (Vero E6 [1]; 1 nM) [%] | cell viability (Vero E6 [1]; 10 nM) [%] | cell viability (Vero E6 [1]; 100 nM) [%] | cell viability (Vero E6 [1]; 1000 nM) [%] | cell viability (Vero E6 [1]; 10000 nM) [%] | cell viability (HepG2 [2]; 1 nM) [%] | cell viability (HepG2 [2]; 10 nM) [%] | cell viability (HepG2 [2]; 100 nM) [%] | cell viability (HepG2 [2]; 1000 nM) [%] | cell viability (HepG2 [2]; 10000 nM) [%] | cell viability (U2OS [3]; 1 nM) [%] | cell viability (U2OS [3]; 10 nM) [%] | cell viability (U2OS [3]; 100 nM) [%] | cell viability (U2OS [3]; 1000 nM) [%] | cell viability (U2OS [3]; 10000 nM) [%] | cell viability (Caco-2 [4]; 1 nM) [%] | cell viability (Caco-2 [4]; 10 nM) [%] | cell viability (Caco-2 [4]; 100 nM) [%] | cell viability (Caco-2 [4]; 1000 nM) [%] | cell viability (Caco-2 [4]; 10000 nM) [%] | cell viability (Calu-3 [5]; 1 nM) [%] | cell viability (Calu-3 [5]; 10 nM) [%] | cell viability (Calu-3 [5]; 100 nM) [%] | cell viability (Calu-3 [5]; 1000 nM) [%] | cell viability (Calu-3 [5]; 10000 nM) [%] | relative viability EC50 (Vero E6 [6]) [µM] | relative viability EC50 (HepG2 [7]) [µM] | relative viability EC50 (U2OS [8]) [µM] | relative viability EC50 (Caco-2 [9]) [µM] | relative viability EC50 (Calu-3 [10]) [µM] | drug sensitivity score (Vero E6 [11]) | drug sensitivity score (HepG2 [12]) | drug sensitivity score (U2OS [13]) | drug sensitivity score (Caco-2 [14]) | drug sensitivity score (Calu-3 [15])
O=C(Oc1ccc([N+](=O)[O-])cc1)N1CCC(C(O)(c2ccc3c(c2)OCO3)c2ccc3c(c2)OCO3)CC1 [JZL-184] | 106 | 97.2 | 91.9 | 96.4 | 91 | 109 | 114 | 90.5 | 116 | 97.9 | 94.9 | 100 | 98 | 96.2 | 97.9 | 104 | 98.5 | 100 | 91.5 | 104 | 105 | 115 | 100 | 91.2 | 117 | > 10 | > 10 | > 10 | > 10 | > 10 | 0 | 0 | 0 | 0 | 0
O=C(O)COc1cccc(-c2ocnc2-c2nc(-c3ccccc3)c(-c3ccccc3)o2)c1 | 99 | 104 | 102 | 104 | 101 | 105 | 102 | 93.6 | 95 | 105 | 102 | 97.7 | 97.5 | 102 | 101 | 109 | 101 | 95.5 | 94.4 | 81.8 | 92.9 | 95.8 | 95 | 100 | 105 | > 10 | > 10 | > 10 | > 10 | > 10 | 0 | 0 | 0 | 0.7 | 0
C[C@@]12CC[C@@H]3[C@@](CC[C@H]4[C@@]3(C)CCC[C@@]4(C)C(=O)O)(CC1=O)C2 [isosteviol] | 97.8 | 99.6 | 98.5 | 97.5 | 106 | 94.4 | 91.4 | 100 | 99.5 | 107 | 101 | 101 | 96.8 | 96.5 | 98.1 | 87.5 | 99.9 | 89.2 | 95.2 | 109 | 103 | 105 | 112 | 110 | 94.5 | > 10 | > 10 | > 10 | > 10 | > 10 | 0 | 0 | 0 | 0 | 0
CCO/N=C(\C(=O)N[C@@H]1C(=O)N2C(C(=O)[O-])=C(Sc3nc(-c4cc[n+](C)cc4)cs3)CS[C@H]12)c1nsc(NP(=O)(O)O)n1 [ceftaroline-fosamil] | 106 | 99.6 | 107 | 97.9 | 102 | 116 | 95.2 | 105 | 101 | 104 | 103 | 106 | 99.5 | 107 | 102 | 94.2 | 101 | 89.4 | 105 | 93.2 | 116 | 109 | 98.4 | 106 | 98.6 | > 10 | > 10 | > 10 | > 10 | > 10 | 0 | 0 | 0 | 0 | 0
CN1CC[C@@H](NC(=O)Nc2ccc(C#N)cc2)C[C@@H]1c1nc2ccccc2[nH]1 [glasdegib] | 102 | 103 | 102 | 100 | 97.1 | 108 | 99 | 99.1 | 96.2 | 92 | 96.3 | 102 | 94.9 | 98.5 | 98.3 | 98.4 | 96.5 | 94.1 | 97.1 | 83.5 | 92.6 | 110 | 96.9 | 111 | 104 | > 10 | > 10 | > 10 | > 10 | > 10 | 0 | 0 | 0 | 0.6 | 0
COc1ccc(Cl)cc1NC(=O)Nc1cc(C)nc2ccccc12 [PQ-401] | 96.4 | 95.3 | 92.8 | 96.4 | 90.8 | 99.1 | 106 | 92 | 103 | 80.3 | 98.2 | 98.5 | 100 | 101 | 86.1 | 93.8 | 97 | 108 | 97.6 | 77.8 | 106 | 93.4 | 107 | 94.9 | 100 | > 10 | > 10 | > 10 | > 10 | > 10 | 0 | 0.4 | 0.1 | 1.1 | 0
CC(C)NC[C@@H](O)COc1ccccc1-n1cccc1 (racemic) [isamoltane] | 105 | 97.7 | 96.1 | 96.3 | 102 | 97.1 | 100 | 108 | 105 | 104 | 96.8 | 99 | 97.4 | 107 | 102 | 96.3 | 97.7 | 93.1 | 103 | 107 | 98.2 | 99.2 | 94.9 | 97.1 | 98.3 | > 10 | > 10 | > 10 | > 10 | > 10 | 0 | 0 | 0 | 0 | 0
